Earlier results as cited in patent US12667579B2, “Pharmaceutical compositions for clinical nutrition” (BAXTER INTERNATIONAL INC., priority 2021, dated 2026).

Assays:
[1] = ingested orally or enterally
[2] = tested on: serum alkaline phosphatases
[3] = compounded with 96 mEq/L of calcium chloride

[Al] [aluminum]
share of ingested aluminum reaching the blood stream [1]: < 1%

sodium glycerophosphate [SGP]
amount hydrolyzed each day ([2]; individuals with normal serum alkaline phosphatase, hydrolysis completely in plasma): 12 to 15 mmol | plasma concentration at which maximum hydrolysis occurs ([2]; plasma, hydrolysis to inorganic phosphate and glycerol): > 700 µM | concentration up to which SGP is stable in compounded solutions [3]: up to 120 mmol/L | solubility in acetone (acetone): essentially insoluble | solubility in ethanol (ethanol): essentially insoluble | solubility in water (water): freely soluble
